Measurements published in patent publication US10501460B2, “Heterocyclic compounds and uses thereof” (Plexxikon Inc., priority 2013, dated 2019).

Legend:
BRD4-BD1 (44-164) = molecular target: T1, BRD4-BD1 (44-164) (Homo sapiens, UniProt O60885); test: Alphascreen binding assay BRD4-BD1 (BRD4 biochemical inhibitory activity); conditions: read-out: Biochemical activity (IC50 μM) BRD4(1) H4
T1 construct: BRD4-BD1 (44-164); made in house; host or cells: E. coli BL21-CodonPlus (DE3)
Description: Binding of compounds of formula (I) with bromodomain 2, 3 4 was assessed using Alphascreen binding assay. The inhibition of the interaction between bromodomain and its acetylated target protein (Filippakopoulos P et al. 2012) was measured quantitatively using recombinant BRD proteins, an acetylated Histone 4 peptide and AlphaScreen™ technology. In absence of inhibition the BRD protein bound to AlphaScreen™ nickel chelate acceptor beads can interact with the acetylated Histone 4 peptide which is immobilized by the AlphaScreen™ Streptavidin coated beads. This interaction brings donor and acceptor beads in proximity. The close proximity allows the singlet oxygen produced by laser excitation of the donor beads to reach the acceptor beads and generate a luminescence signal. BRD inhibitors result in a decrease in the proximity signal through an inhibition of the BRD—acetylated peptide interaction.
Recombinant human bromodomains containing the N-terminal bromodomain (BRD2-BD1 (71-194), BRD3-BD1 (24-144) and BRD4-BD1 (44-164)) or dual bromodomains (BRD4-BD12 (1-477), BRD4-BD12 (1-472)) were prepared and purified as described in protein expression and purification session. The peptide is human Histone H41-21K5AcK8AcK12AcK16Ac-Biotin (Anaspec Calif., USA).
Protocol for BRD2, BRD3 and BRD4 assay: All components are prepared in buffer composed of 50 mM HEPES pH 7.5, 100 mM NaCl, 0.01% bovine serum albumin (“BSA”), 0.01% Triton X-100, 2 mM dithiothreitol (“DTT”). 7 μL of Bromodomain protein and 7 μL of peptide are added to wells containing 1 μL of various concentrations of test compounds of formula (I) or DMSO vehicle in an Alphaplate (PerkinElmer Ga., USA) and incubated for 1 hour at room temperature. 4 μL donor and acceptor bead mixture is then added with final concentrations of 7.5 μg/ml. 30 minutes after bead addition, Alpha signal is read on the Envision spectrometer ([…]Ex 680 nm, […]Em 520-620 nm). Final concentrations of bromodomain proteins and peptide are as shown below.
All data was normalized to the mean of 16 high and 16 low control wells on each plate. A four parameter curve fit of the following formula was then applied: Y=a+(b−a)/(1+(x/c)^d) Where ‘a’ is the minimum, ‘b’ is the maximum, ‘c’ is the pIC50 and ‘d’ is the Hill slope. Protein Expression and Purification
Recombinant human bromodomains containing the N-terminal bromodomain (BRD2-BD1 (71-194), BRD3-BD1 (24-144) and BRD4-BD1 (44-164)) or dual bromodomains (BRD4-BD12 (1-477), BRD4-BD12 (1-472)) were expressed in E. coli cells (in a modified pET vector) with an N-terminal six-His tag and purified using a combination of both IMAC (Ni-affinity) and size exclusion chromatography steps.
Recombinant BRD proteins were expressed using the E. coli strain BL21-CodonPlus (DE3) (Agilent Technologies Calif., USA). Cells were grown in Terrific Broth (TB) media to an OD600 of 1.2 at 37° C. at which temperature was reduced to 25° C., protein was induced with 1.0 mM ispropyl-β-D-thiogalactopyranoside (“IPTG”) for 12-18 hours and harvested by centrifugation at 8000×g for 20 minutes. Cells were re-suspended in 0.1M K2PO4 pH 8.0, 250 mM NaCl, 10% Glycerol, 0.75% NP-40, 25 mM Imidazole, 5 mM beta-mercaptoethanol (“BME”) with 0.2 mg/ml Lysosyme, 2.0 mM phenylmethanesulfonyl fluoride (“PMSF”), 25 μg/ml DNAse I, incubated on ice for 30 minutes and lyzed with a cell disruptor (MicroFluidics Mass., USA). The lysate was clarified by centrifugation at 20,000×g for 2 hours. The protein was captured with Ni-NTA resin (Life Technologies, USA). Contaminating proteins were washed off with 25 mM Tris-HCl pH 8.3, 250 mM NaCl, 12% Glycerol and 50 mM Imidazole. Following 3× wash steps, protein was eluted step wise using a 50 mM HEPES pH 7.5, 500 mM NaCl and 400 mM Imidazole. The protein was further purified using Gel Filtration column 26/600 Superdex 200 (GE Biosciences NJ, USA) in 50 mM HEPES pH 7.5, 250 mM NaCl. The protein was aliquoted and flash-frozen in liquid Nitrogen. […]

MV-4-11 = test: Oncology cell growth assay MV-4-11 (CellTiter Glo, 72 hours); type: cell-based; conditions: Homo sapiens, MV4-11, 72 h; MV-4-11 cell growth inhibitory activity, 3d
In short: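 Growth read by CellTiter Glo luminescence after 72 h compound exposure of MV-4-11 AML cells (MLL-AF4), using 8-point 1:3 series to 10 μM final in 0.2% DMSO. Data normalized to DMSO wells, four-parameter fit yields pIC50.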

bromodomain = test: Bromodomain cell assays of Example 40 (at least one of them); type: cell-based; conditions: in at least one of the bromodomain cell assays described in Example 40
In short: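 Growth inhibition: 3000 MV-4-11, MOLM-13, MM.1S or neuroblastoma cells/well got an 8-point 1:3 series from 10 μM top (0.2% DMSO) for 72 h, then CellTiter-Glo luminescence. Myc reporter: MV-4-11 with E-box firefly luciferase, 24 h exposure, One-Glo luminescence plus CellTiter-Fluo cell count. pIC50 from four-parameter fit.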

Row | SMILES | IC50 (BRD4-BD1 (44-164)) [µM] | IC50 (MV-4-11) [µM] | IC50 (bromodomain) [µM]
1 | [2H]C([2H])([2H])n1cc(CC2CCN(C(=O)OCc3ccccc3)CC2)c2cc(-c3c(C)noc3C)cnc21 [P-0092, benzyl 4-[[5-(3,5-dimethylisoxazol-4-yl)-1-(trideuteriomethyl)pyrrolo[2,3-b]pyridin-3-yl]methyl]piperidine-1-carboxylate] | ≤ 1 | 1 to 10 | < 10
2 | Cc1noc(C)c1-c1cnc2[nH]cc(C=C3CC[S+]([O-])CC3)c2c1 (stereo not drawn) [P-0093, 4-[[5-(3,5-dimethylisoxazol-4-yl)-1H-pyrrolo[2,3-b]pyridin-3-yl]methylene]thiane 1-oxide] | 1 to 10 | 1 to 10 | < 10
3 | Cc1noc(C)c1-c1cnc2c(c1)c(C=C1CCS(=O)(=O)CC1)cn2S(=O)(=O)c1ccccc1 [P-0097, 4-[[1-(benzenesulfonyl)-5-(3,5-dimethylisoxazol-4-yl)pyrrolo[2,3-b]pyridin-3-yl]methylene]thiane 1,1-dioxide] | 1 to 10 | 1 to 10 | < 10
4 | Cc1noc(C)c1-c1cnc2[nH]cc(C=C3CCS(=O)(=O)CC3)c2c1 [P-0099, 4-[[5-(3,5-dimethylisoxazol-4-yl)-1H-pyrrolo[2,3-b]pyridin-3-yl]methylene]thiane 1,1-dioxide] | 1 to 10 | 1 to 10 | < 10
5 | Cc1noc(C)c1-c1cnc2c(c1)c(CC1CC3CCC1C3)cn2C (stereo not drawn) [P-0100, 3,5-dimethyl-4-[1-methyl-3-(norbornan-2-ylmethyl)pyrrolo[2,3-b]pyridin-5-yl]isoxazole] | 1 to 10 | 1 to 10 | < 10
6 | Cc1noc(C)c1-c1cnc2c(-c3cnc(C4CC4)nc3)cn(S(=O)(=O)c3ccccc3)c2c1 [P-0102, 4-[1-(benzenesulfonyl)-3-(2-cyclopropylpyrimidin-5-yl)pyrrolo[3,2-b]pyridin-6-yl]-3,5-dimethyl-isoxazole] | 1 to 10 | 1 to 10 | < 10
7 | CCCCC(O)(c1cn(C)c2ncc(-c3c(C)noc3C)cc12)C1CCC(F)(F)CC1 (stereo not drawn) [P-0108, 1-(4,4-difluorocyclohexyl)-1-[5-(3,5-dimethylisoxazol-4-yl)-1-methyl-pyrrolo[2,3-b]pyridin-3-yl]pentan-1-ol] | ≤ 1 | ≤ 1 | < 10
8 | CCCCC(c1cn(C)c2ncc(-c3c(C)noc3C)cc12)C1CCC(F)(F)CC1 (stereo not drawn) [P-0109, 4-[3-[1-(4,4-difluorocyclohexyl)pentyl]-1-methyl-pyrrolo[2,3-b]pyridin-5-yl]-3,5-dimethyl-isoxazole] | ≤ 1 | 1 to 10 | < 10
9 | Cc1noc(C)c1-c1cnc2c(C#CCF)cn(S(=O)(=O)c3ccccc3)c2c1 [P-0157, 4-[1-(benzenesulfonyl)-3-(3-fluoroprop-1-ynyl)pyrrolo[3,2-b]pyridin-6-yl]-3,5-dimethyl-isoxazole] | ≤ 1 | ≤ 1 | < 10
10 | Cc1cc(-c2cn(S(=O)(=O)c3ccccc3)c3cc(-c4c(C)noc4C)cnc23)[nH]n1 [P-0164, 4-[1-(benzenesulfonyl)-3-(3-methyl-1H-pyrazol-5-yl)pyrrolo[3,2-b]pyridin-6-yl]-3,5-dimethyl-isoxazole] | ≤ 1 | ≤ 1 | < 10
11 | Cc1noc(C)c1-c1cnc2c(CCC(=O)O)cn(S(=O)(=O)c3ccccc3)c2c1 [P-0174, 3-[1-(benzenesulfonyl)-6-(3,5-dimethylisoxazol-4-yl)pyrrolo[3,2-b]pyridin-3-yl]propanoic acid] | 1 to 10 | 1 to 10 | < 10
12 | Cc1noc(C)c1-c1cnc2c(c1)c(S(=O)(=O)c1ccccc1)cn2C1COC1 [P-0179, 4-[3-(benzenesulfonyl)-1-(oxetan-3-yl)pyrrolo[2,3-b]pyridin-5-yl]-3,5-dimethyl-isoxazole] | 1 to 10 | 1 to 10 | < 10
13 | Cc1noc(C)c1-c1cnc2c(c1)c(Sc1ccccc1)cn2C1CCOC1 (stereo not drawn) [P-0180, 3,5-dimethyl-4-(3-phenylsulfanyl-1-tetrahydrofuran-3-yl-pyrrolo[2,3-b]pyridin-5-yl)isoxazole] | 1 to 10 | 1 to 10 | < 10
14 | Cc1noc(C)c1-c1cnc2c(c1)c(S(=O)(=O)c1ccccc1)cn2C1CCOC1 (stereo not drawn) [P-0181, 4-[3-(benzenesulfonyl)-1-tetrahydrofuran-3-yl-pyrrolo[2,3-b]pyridin-5-yl]-3,5-dimethyl-isoxazole] | 1 to 10 | ≤ 1 | < 10
15 | Cc1noc(C)c1-c1cnc2c(c1)c(Sc1ccccc1)cn2C1CCOCC1 [P-0182, 3,5-dimethyl-4-(3-phenylsulfanyl-1-tetrahydropyran-4-yl-pyrrolo[2,3-b]pyridin-5-yl)isoxazole] | 1 to 10 | ≤ 1 | < 10
16 | Cc1noc(C)c1-c1cnc2c(c1)c(S(=O)(=O)c1ccccc1)cn2C1CCOCC1 [P-0183, 4-[3-(benzenesulfonyl)-1-tetrahydropyran-4-yl-pyrrolo[2,3-b]pyridin-5-yl]-3,5-dimethyl-isoxazole] | 1 to 10 | ≤ 1 | < 10
17 | Cc1nc(-c2cn(S(=O)(=O)c3ccccc3)c3cc(-c4c(C)noc4C)cnc23)cs1 [P-0191, 4-[1-(benzenesulfonyl)-3-(2-methylthiazol-4-yl)pyrrolo[3,2-b]pyridin-6-yl]-3,5-dimethyl-isoxazole] | 1 to 10 | ≤ 1 | < 10
18 | [2H]C([2H])(C1CCC(F)(F)CC1)n1cc(-c2cnn(C3CC3)c2)c2ncc(-c3c(C)noc3C)cc21 [P-0220, 4-[3-(1-cyclopropylpyrazol-4-yl)-1-[dideuterio-(4,4-difluorocyclohexyl)methyl]pyrrolo[3,2-b]pyridin-6-yl]-3,5-dimethyl-isoxazole] | ≤ 1 | ≤ 1 | < 10
